Results: patent US10975352B2, “Methods of enhancing cell survival of stem cells” (The Scripps Research Institute, priority 2008, dated 2021)

How the values were obtained:
hESCs [1] = assay: Karyotyping (G-banding) of long-term expanded hESCs; assay type: cell-based, human; details: more than 20 generations; chemically-defined medium
Procedure: Teratoma formation experiments were performed by injecting 3-5 million hESCs (maintained in the presence of compounds Tvz or Ptn) under the kidney capsule of nude mice. After 4-5 weeks, all mice developed teratomas, which were removed and then immunohistologically analyzed by The Scripps Research Institute Research Histology Service and Animal Resources. Compounds treated cells were karyotyped by standard G-banding at the Children's Hospital Oakland, Cytogenetics Laboratory. No chromosomal abnormality was found in the 10 randomly picked nuclei.

[2] = tested on: E-cadherins, EGFR1 and ERB2; assay: Immunoprecipitation of E-cadherins with EGFR1 and Erb2; assay type: cell-based, human
From the text: Interplay between physical/structural environment and growth factor plays a very important role in cell fate regulation (Comoglio, P. M., Boccaccio, C., & Trusolino, L., Curr Opin Cell Biol 15 (5):565-571 (2003)). To examine whether growth factors are involved in integrin-mediated hESC survival, we treated dissociated hESCs with Tzv or Ptn together with individual highly specific growth factor receptor inhibitors. […] Similarly inhibition of FGFR, IGFR, EGFR1 or Erb2 also greatly abolished Tzv-induced hESC survival in suspension culture.
(§1) ALP detection kit and integrin antibodies were from Chemicon. AG825 (Erb2 inhibitor), AG1478 (EGFR inhibitor), PPP (IGFR1 inhibitor) were purchased from Calbiochem. Antibodies raised against the intracytoplasmic tail of E-cadherins (Transduction Laboratories, Lexington, Ky.) were used for immunoprecipitation. The antibody TS2/16 was from Pierce. Antibodies to the extracellular domain of E-cadherin molecule were from Zymed (Carlsbad). Antibodies against extracellular signal-regulated kinase/MAPK, EGFR1, ERB2, GADPH and phosphorylated form of AKT were from Cell Signaling. Mouse monoclonal anti-phosphotyrosine (4G-10 clone) was from Upstate Biotechnology. Ptn and Tzv were added to culture medium at 2 μM.

hESCs [3] = assay: ALP positive colony formation / low-density survival assay of dissociated hESCs on Matrigel; assay type: cell-based, human; details: adherent culture (e.g. Matrigel-coated plate)
Procedure: Human ESC lines H1, HUES7 and HUES9 were cultured on irradiated MEF feeder cells in DMEM-F12 supplemented with 2 mM L-glutamine, lx nonessential amino acids, 20% serum replacement (Invitrogen) and 10 ng/ml basic Fibroblast growth factor (Invitrogen). Chemically-defined and feeder-free hESC culture was described previously (Yao, S. et al., Proc Natl Acad Sci USA 103 (18):6907-6912 (2006)). Briefly, hESCs were grown on Matrigel-coated tissue culture plates in N2B27-CDM (DMEM-F12 supplemented with 1×N2 supplements, lx B27 supplements, 2 mM L-glutamine, 0.11 mM 2-mercaptoethanol, lx nonessential amino acids, and 0.5 mg/ml BSA (fraction V)) and 20 ng/ml bFGF. Human ESCs were passaged every 5-6 days with 0.05% trypsin.
For clonal survival assays, single hESCs were diluted to clonal density and plated onto 96-well Matrigel-coated plate. For low-density survival assays, 500 cells were plated onto 96-well Matrigel-coated plate. To visualize hESC colonies, cultures were fixed in 4% paraformaldehyde in PBS for 5 min, washed once in PBS, then stained for alkaline phosphatase activity as described in manufacturer's instructions. ALP positive colonies were counted on an inverted microscope.
as §1, with “μM. […]” for “μM.”

E-cadherin = assay: Endocytosis assay; assay type: cell-based, human
Procedure: hESCs were incubated with 1.5 mg/ml sulfosuccinimidyl 2-(biotinamido) ethyl-dithioproprionate (sulfo-NHS-SS-biotin) (Pierce Chemical Co.) on ice, followed by washing and quenching. Endocytosis of E-cadherin was initiated by Ca^2+ depletion and 37° C. incubation. Cells were then incubated in two 20-min washes of glutathione solution (60 mM glutathione, 0.83 M NaCl, with 0.83 M NaOH and 1% BSA added before use) at 0° C. which removed all cell surface biotin groups. Remaining biotinylated proteins were sequestered inside cells by endocytosis and were therefore protected from glutathione stripping. Biotinylated proteins were recovered on streptavidin beads and analyzed by SDS-PAGE. E-Cadherins were detected by immunoblotting. Total level of surface E-cadherin before endocytosis was used as reference.

[4] = tested on: primary human pancreatic islets/beta cells; assay: Cell death of dispersed primary human pancreatic islets/beta cells; assay type: cell-based; details: plate coated with matrigel or laminin; 1-2 mM in media
Procedure: For example, the inventors dispersed primary human pancreatic islets/beta cells plated as single cells onto a tissue culture plate that was coated with matrigel or laminin. […] Accordingly, in some embodiments, a compound of the present invention is administered to an individual in need of pancreatic beta and/or islet cells, wherein administration of the compound results in an increase in the number of beta or islet cells in the individual.

[5] = tested on: mouse P1 cortical explants; assay: Axon outgrowth from mouse P1 cortical explants; assay type: cell-based; details: 3 μM; added 20 minutes after plating; 4 days in culture; DMSO control
Procedure: Compounds of formula I and III (i.e., Tvz and Ptn) are effective at promoting axonal regeneration and functional recovery in injured central nervous system. […] Tzv (3 μM) was tested on mouse P1 cortical explants, with axon outgrowth as an outcome read-out. Tzv was added to the medium 20 minutes after plating, with DMSO as a control. […] Accordingly, in some embodiments, a compound of the present invention is administered to an individual having a central nervous system injury or who is in need or would otherwise benefit from axonal regeneration.

stem cells = assay: Survival and anti-differentiation of stem cells ex vivo; assay type: cell-based; details: human and mouse embryonic, neural, skin, mesenchymal, hematopoietic, stromal and epithelial stem cells; contact immediately after isolation
From the text: In some embodiments, the invention provides methods of promoting survival and anti-differentiation in stem cells ex-vivo.

With `O=C(NCc1ccccc1)c1csc(Nc2ccncn2)n1` [Tzv, N-benzyl-2-(pyrimidin-4-ylamino)thiazole-4-carboxamide] the “karyotype of hESCs serially passaged in compound-containing medium” value (hESCs [1]) was “normal karyotype”, the “binding of E-cadherins to EGFR1 and ERB2” value [2] was “induced binding of E-cadherins to EGFR1 and ERB2” and the “survival of dissociated hESCs in adherent culture” value (hESCs [3]) was “greatly improved survival”. The “internalization of E-cadherins” value (E-cadherin) was “significantly blocked”, the “cell death of single primary beta cells” value [4] was “cell death was inhibited” and the axon outgrowth [5] was “dramatic effect in promoting axon outgrowth”. The “survival and anti-differentiation of stem cells” value (stem cells) was “effective in promoting survival and anti-differentiation”.
